This note sets out measurements from patent US8901157B2, “Compositions and methods of use of ritonavir for treating HCV” (AbbVie Inc., priority 2006, dated 2014).

Like-named read-outs stand apart in the source and are kept apart here.

Data set [1] in a line: Pharmacokinetics of SCH 503034 in rats, with or without coadministered ritonavir. The settings on record: rat; for half-life: mean; for Cmax: po, 5 mg/kg; for C8 h: plasma at 8 h. It is filed as in vivo, Sprague-Dawley derived rats.
The nature of data set [2]: in vitro. The data set is classed as in vitro ADME. The settings on record: human, pH 7.4, human liver microsomes, read-out: Percent Inhibition of Metabolism by Ritonavir. How it is done: (§1) Liquid handling was carried out on a Tecan EVO robotic system. Triplicate incubations were carried out at a final test compound concentration of 1 μM with 0.5 mg/ml microsomal protein, and 1 mM NADPH. Pooled human liver microsomes (1 mg/ml protein) and NADPH cofactor (2 mM) were prepared in 50 mM phosphate buffer at pH 7.4. Stock solutions (10 mM) of VX-950 or SCH 503034 were prepared in DMSO and then diluted to 100 μM in 1:1 acetonitrile/water. The solutions of compounds were added into the NADPH cofactor solution containing 0, 0.8 or 8 μM of ritonavir in a 2 ml 96-well plate. The resulting solution was added to the microsomes (1:1) that had been pre-incubated for 10 minutes at 37° C. Samples (0.1 ml) were incubated in 96-well plates at 37° C. for 0, 10, 20 and 30 min in a Tecan 4-slot incubator. At each time point, the robotic arm removed one of the replicate plates and the reactions were stopped by adding 1 volume (100 μl) of acetonitrile with internal standard (0.05 μM buspirone) to each well. All plates were centrifuged at 3500 rpm for 30 min, and the supernatant was transferred to a 96-well injection plate. The plates were stored at 4° C. until analyzed.
(§2) LC-MS/MS analysis: The samples were analyzed in positive mode using the turbospray ion source of PE/Sciex API 4000 Q-Trap mass spectrometer with Shimadzu HPLC system. Samples were injected (5 μL) onto a Lancer C18 column (5 μm, 30×2.1 mm) from Analytical Sales and Services Inc. (Pompton Plains, N.J.) and separation occurred via a gradient: The flow rate was 0.5 mL/min; starting conditions of 7.5% B, 2.5% C, increasing to 30% B and 10% C at 0.4 min. […] Mobile phase A was 95/5 water/methanol (v/v) with 10 mM ammonium acetate and 60 μL/L acetic acid. Mobile phase B was methanol containing 10 mM ammonium acetate and 60 μL/L acetic acid. Mobile phase C was acetonitrile.
Using the above conditions, the presence of ritonavir inhibited the metabolism of VX-950 and SCH 503034 in the following manner:
Metabolism of VX-950 and SCH 503034 in Human Liver Microsomes in the Absence or Presence of Ritonavir
A general note: Microsomes from liver hold many membrane-bound enzymes, among them those of drug oxidation.

A further data set in a line: in vivo. The settings on record: Sprague-Dawley, rat, 5 mg/kg.
Data set [3] is described as follows: in vitro. The data set is classed as in vitro ADME. The settings on record: rat, pH 7.4, rat liver microsomes, read-out: Percent Inhibition of Metabolism by Ritonavir. How it is done:
as §1, §2
Using the procedure of Example 1, but substituting rat liver microsomes for human liver microsomes, the presence of ritonavir inhibited the metabolism of VX-950 and SCH 503034 in the following manner: […]

For data set [4] the following is noted: Sprague-Dawley, rat, in vivo, 5 mg/kg.
Protocol: (§3) The 1 mL/kg intravenous dose was administered as a slow bolus (˜1 minutes) in a jugular vein of the rats under isoflurane anesthetic; the 1 ml/kg oral dose (±ritonavir) was administered by gavage. Serial blood samples were obtained from a tail vein of each animal 0.1 (IV only), 0.25, 0.5, 1, 1.5, 2, 3, 4, 6 and 8 hours after dosing. The heparinized samples were placed on ice immediately following collection. Plasma was separated by centrifugation and stored frozen for subsequent analysis.
(§4) Concentrations of parent drug (and ritonavir) were determined by HPLC-MS/MS following liquid-liquid extraction of the plasma samples. Analysis was performed on a Sciex API 2000™ Biomolecular Mass Analyzer using Turbo Ion Spray. Peak areas of the title compounds and internal standards were determined using the Sciex MacQuan™ software. Calibration curves were derived from peak area ratio (parent drug/internal standard) of the spiked plasma standards using least squares linear regression of the ratio versus the theoretical concentration. The maximum plasma concentration (Cmax) and the time to reach the maximum plasma concentration (Tmax) were read directly from the observed plasma concentration-time data. The plasma concentration data were submitted to multi-exponential curve fitting using WinNonlin. The area under the plasma concentration-time curve from 0 to t hours (last measurable plasma concentration time point) after dosing (AUC0-t) was calculated using the linear trapezoidal rule for the plasma-time profiles. The residual area extrapolated to infinity, determined as the final measured plasma concentration (Ct) divided by the terminal elimination rate constant (β), was added to AUC0-t to produce the total area under the curve (AUC0-∞). The apparent total plasma clearance (CLp) was calculated by dividing the administered dose by the AUC0-∞. The volume of distribution, Vc, was estimated by dividing the dose by the extrapolated plasma concentration at time zero (C0). The volume of distribution at steady state, Vss, was estimated as a product of the plasma clearance (CLp) and the mean residence time (MRT); the terminal-phase volume of distribution, Vβ, was derived from the plasma clearance value (CLp) divided by the plasma elimination rate constant (β). The bioavailability was calculated as the dose-normalized AUC0-∞ from the oral dose divided by the corresponding value derived from an intravenous dose.
Data set [5] in a line: Pharmacokinetics of VX-950 in rats, with or without coadministered ritonavir. Particulars: rat; for half-life: Sprague-Dawley, plasma, 5 mg/kg.
Protocol: as §3, §4
Setting [6] is: Sprague-Dawley, plasma, PO 5 mg/kg, no ritonavir, mean (SEM), n=3.
Setting [7] is: PO 5 mg/kg, no ritonavir, mean (SEM), n=3.

Protocol for in vivo: as §3, §4

As to `CC(C)(C)NC(=O)N[C@H](C(=O)N1C[C@H]2[C@@H]([C@H]1C(=O)NC(CC1CCC1)C(=O)C(N)=O)C2(C)C)C(C)(C)C` (some centres unmarked) [SCH 503034, 3-[2-(3-tert-butyl-ureido)-3,3-diemthyl-butyryl]-6,6-dimethyl-3-aza-bicyclo[3.1.0]hexane-2-carboxylic acid (2-carbamoyl-1-cyclobutylmethyl-2-oxo-ethyl)-amide], the AUC – broadly, the area under the concentration-time curve, a measure of exposure – in data set [1] (Sprague-Dawley, plasma, IV 5 mg/kg, mean (SEM), n=3) came out at 3120 ng·h/mL; in data set [1] (setting [6]), 110 ng·h/mL. Besides, in data set [1] (Sprague-Dawley, plasma, IV 5 mg/kg, mean (SEM), n=3, read-out: CLp (converted)), the clearance was 34 mL/min/kg. In addition, the Vd in data set [1] (Sprague-Dawley, plasma, IV 5 mg/kg, mean (SEM), n=3, read-out: Vss) turned out to be 0.53 L/kg. Besides, the half-life (usually the time needed for the level to fall by half in the phase considered) in data set [1] (Sprague-Dawley, plasma, IV 5 mg/kg, n=3) is 0.3 h; in data set [1] (Sprague-Dawley, plasma, PO+ = 5 mg/kg oral SCH 503034 + 5 mg/kg oral ritonavir, n=3), 2.5 h. Further, the AUC(0-t) in data set [1] (Sprague-Dawley, plasma, PO+ = 5 mg/kg oral SCH 503034 + 5 mg/kg oral ritonavir, mean (SEM), n=3, read-out: AUC (0-8 hr AUC)) was 2180 ng·h/mL. Moreover, the Cmax in data set [1] (setting [6]) worked out at 70 ng/mL; in data set [1] (Sprague-Dawley, plasma, PO+ = 5 mg/kg oral SCH 503034 + 5 mg/kg oral ritonavir, mean (SEM), n=3), 520 ng/mL. Moreover, in data set [1] (5 mg/kg oral SCH 503034 + 5 mg/kg oral ritonavir vs SCH 503034 alone, FIG. 3), the “plasma levels on coadministering with ritonavir” value was “substantially elevated”. For the same molecule, the Vβ in data set [1] (IV 5 mg/kg, mean (SEM), n=3) is reported as 0.92 (0.29) L/kg. The F in data set [1] (setting [7]) was 3.5 (1.5) %; in data set [1] (PO+ = 5 mg/kg oral SCH 503034 + 5 mg/kg oral ritonavir, mean (SEM), n=3) it was 70.1 (7.0) %. The C8 h in data set [1] (PO 5 mg/kg, no ritonavir) is recorded as under 0.001; in data set [1] (PO+ = 5 mg/kg oral SCH 503034 + 5 mg/kg oral ritonavir), 0.076.
For the molecule `CCC[C@H](NC(=O)[C@@H]1[C@H]2CCC[C@H]2CN1C(=O)[C@@H](NC(=O)[C@@H](NC(=O)c1cnccn1)C1CCCCC1)C(C)(C)C)C(=O)C(=O)NC1CC1` [VX-950, 2-(2-{2-cyclohexyl-2[(pyrazine-2-carbonyl)-amino]-acetylamino}-3,3-dimethyl-butyryl)-octahydro-cyclopenta[c]pyrrole-1-carboxylic acid(1-cyclopropylaminooxalyl-butyl)-amide], the inhibition (usually the relative decrease from the control value, in per cent) at 1 μM is 0% in the data set “in vitro [2]” (ritonavir 0 micromolar), 72% in “in vitro [2]” (ritonavir 0.4 micromolar) and 100% in the data set “in vitro [2]” (ritonavir 4.0 micromolar). For the same molecule, the AUC in “in vivo” (iv) came out at 3030 ng·h/mL; in “in vivo” (po), 1050 ng·h/mL. This molecule registered a Vd in the data set “in vivo” (iv) of 2.4 L/kg. The molecule also showed a clearance in “in vivo” (iv) of 28.3 mL/min/kg. Further, the Tmax (in general, the time from dosing to the highest level) in “in vivo” (po, Tmax) was 1.1 h. Besides, the inhibition at 30 min, 1 μM was determined as 0% in the data set “in vitro [3]” (ritonavir 0 micromolar), 61% in the data set “in vitro [3]” (ritonavir 0.4 micromolar) and 100% in “in vitro [3]” (ritonavir 4.0 micromolar). Further, the Vβ in data set [4] (iv) is listed as 8.1 (2.6) L/kg. The F in data set [4] (po) was 34.8 (11.0) %. This molecule showed a C8 h in data set [4] (po, 8 h) of 0.018. The figures for the half-life in data set [5] (iv) and in data set [5] (po) were 2.8 h and 1.7 h, respectively. In addition, the Cmax in data set [5] (setting [7]) was 0.43 (0.15) μg/ml.
